Data: patent US20230087844A1, “USE OF N2-QUINCLINE OR ISOQUINOLINE SUBSTITUTED PURINE DERIVATIVES IN CANCER TREATMENT” (SHANGHAI HUAYU BIOTECHNOLOGY CO., LTD., priority 2020, published 2023)
Marks after values point to notes of the source that are not given here.

How the values were obtained:
AKT = assay: Inhibition of AKT phosphorylation; format: biochemical
Source text: (§1) FLT3 is a class III receptor tyrosine kinase and plays an important role in hematopoiesis and lymphocyte development. […] Wang et al found over 60% of 82 leukemia cell lines were FLT3 positive (Wang Y et al., (2006) Journal of Experimental Hematology 14(3): 446-449). FLT3-internal tandem duplication (ITD) is the most commonly seen mutation in AML patients, with about 17-34% of AML patients carrying such a mutation (Jia H et al., (2018) Medical Laboratory Science and Clinics 19(5): 39). […] Thus, the compounds of the disclosure with high inhibitory effect on FLT3 function may be good candidates for leukemia treatment.

FLT3 = FLT3 (Homo sapiens, UniProt P36888); assay: Inhibition of FLT3 phosphorylation; format: biochemical
Chain of FLT3 (P36888 27-993, species assumed): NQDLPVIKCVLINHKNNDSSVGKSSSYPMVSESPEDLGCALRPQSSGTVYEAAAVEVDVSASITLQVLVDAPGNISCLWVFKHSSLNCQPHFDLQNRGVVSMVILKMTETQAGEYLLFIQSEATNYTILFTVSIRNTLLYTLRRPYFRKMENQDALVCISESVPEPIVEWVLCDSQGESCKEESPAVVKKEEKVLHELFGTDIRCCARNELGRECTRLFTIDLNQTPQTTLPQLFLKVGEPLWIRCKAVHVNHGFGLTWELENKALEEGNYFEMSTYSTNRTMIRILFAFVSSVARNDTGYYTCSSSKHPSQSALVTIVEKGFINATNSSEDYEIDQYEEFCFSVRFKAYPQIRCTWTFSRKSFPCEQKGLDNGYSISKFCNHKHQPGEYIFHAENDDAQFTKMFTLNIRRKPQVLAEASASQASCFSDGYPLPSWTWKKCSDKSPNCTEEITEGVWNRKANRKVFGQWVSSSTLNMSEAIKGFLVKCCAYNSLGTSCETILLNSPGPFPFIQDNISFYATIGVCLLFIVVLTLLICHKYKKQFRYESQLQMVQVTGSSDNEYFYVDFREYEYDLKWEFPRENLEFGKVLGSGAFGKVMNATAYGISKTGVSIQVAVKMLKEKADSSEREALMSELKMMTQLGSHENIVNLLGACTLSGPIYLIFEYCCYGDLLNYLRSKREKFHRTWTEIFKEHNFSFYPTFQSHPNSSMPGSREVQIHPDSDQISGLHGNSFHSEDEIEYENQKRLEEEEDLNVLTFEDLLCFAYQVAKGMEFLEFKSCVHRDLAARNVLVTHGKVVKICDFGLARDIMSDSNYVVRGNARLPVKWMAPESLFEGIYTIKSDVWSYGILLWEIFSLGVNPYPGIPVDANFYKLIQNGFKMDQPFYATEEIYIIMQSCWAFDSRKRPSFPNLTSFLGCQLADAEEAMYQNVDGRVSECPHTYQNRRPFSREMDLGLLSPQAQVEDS
Source text: as §1

solid cancer cell lines = assay: MTT tumor cell proliferation, solid cancer cell lines (summary); format: cell-based; settings: summary of Table 2
Experimental: as an exemplary compound of formula (I), was tested for its inhibitory effect on tumor cell proliferation in a MTT assay.
Briefly, cells at the log phase were collected, suspended in the cell culture medium at 4*10^4/ml density, and plated in 96-well plates, 90 μl per well. The plates were kept in a 5% CO2 and 37° C. incubator for 2 hours, and then added with 100 μg/ml, 10 μg/ml, 1 μg/ml, 0.1 μg/ml, 0.01 μg/ml or 0.001 μg/ml Compound A, 4 replicates for each cell at each compound concentration. DMSO was used in the positive control group, and another negative group was also set. After 72 hour incubation in the same incubator, 20 μl 5 mg/ml MTT reagent was added to each well. After another 4 hour incubation, each well was added with 100 μl SDS and further incubated for 12 hours. Absorbance at 570 nm was read in a reader, and IC50 was calculated.

[1] = test system: S180 murine sarcoma cancer cells; assay: S180 sarcoma growth in mice; settings: for TGI: tumor weight, Day 8
Experimental: On Day 8, the mice were weighed and sacrificed, and the tumors were collected and weighed.
Tumor growth inhibition (TGI) was calculated by the following formula. Tumor growth inhibition=(average tumor weight in vehicle group-average tumor weight in administration group)/average tumor weight in vehicle group×100%

[2] = test system: Colon26 murine colon cancer cells; assay: Colon26 colon cancer growth in mice; format: in vivo, F1 mice; settings: D1-7; for TGI / Tumor weight: Day 8
Experimental: F1 mice, 18-22 g, purchased from Shanghai Bi-Kai Laboratory Animal Co., Ltd, were subcutaneously inoculated with Colon26 murine colon cancer cells (from Cell Bank, Chinese Academy of Sciences) at the right axilla. […] Tumor growth inhibition (TGI) was calculated.

MV-4-11 cells = assay: MV-4-11 AML xenograft in mice (Example 7); format: in vivo, BALB-cA nude mice; settings: D0-20; for Complete remission: number of mice, N 6
Experimental: Mice body weights and tumor sizes were measured twice a week. The tumor volume, T/C and TGI (Tumor growth inhibition=(average tumor volume in vehicle group-average tumor volume in administration group)/average tumor volume in vehicle group ×100%) were calculated. Mice were sacrificed on Day 21.

[3] = test system: A549 human non-small cell lung cancer cells; assay: A549 non-small cell lung cancer xenograft in mice; settings: D0, 3, 6, 9; for T/C: D18
Experimental: Mice body weights and tumor sizes were measured 2 to 3 times a week. The tumor volume (V) was calculated as (length× width^2)/2. T/C (%) was calculated as (T-T0)/(C-C0)×100, wherein T and C represented the tumor volumes in the administration group and the vehicle group respectively at the end of the experiment, while T0 and C0 represented the tumor volumes in the administration group and the vehicle group respectively at the beginning of the experiment. And RTV was calculated as (Tumor volume at Day N/Tumor volume at Day 0). Mice were sacrificed on Day-14.
BALB/cA-nude mice, 5-6 weeks old, purchased from Shanghai SLAC Laboratory Animal Co., Ltd, were subcutaneously inoculated with A549 human non-small cell lung cancer cells (from ATCC).
Mice body weights and tumor sizes were measured 2 to 3 times a week. The tumor volume, T/C and RTV were calculated as described above. Mice were sacrificed on Day 18.

## c1cnc2ccc(Nc3nc(NC4CC4)c4nc[nH]c4n3)cc2c1 [Compound A]
AKT
  EC50: ~100 nM
FLT3
  EC50: ~49 nM
Solid cancer cell lines
  IC50: ≥ 2300 nM
[1]; 60 mg/kg P.O., D1-4
  Tumor weight on Day 8: 0.33 ± 0.13 g
  TGI: 82.8* %
[1]; 80 mg/kg I.V., D1&D4
  Tumor weight on Day 8: 1.10 ± 0.21 g
  TGI: 42.7* %
[1]; 80 mg/kg P.O., D1 &D4
  Tumor weight on Day 8: 1.12 ± 0.34 g
  TGI: 41.7* %
[2]; 30 mg/kg P.O.
  Body weight (without tumor) at D8: 21.57 g
  TGI: 31.88%
  Tumor weight: 1.39 g
[2]; 60 mg/kg P.O.
  Body weight (without tumor) at D8: 15.96 g
  TGI: 76.12%
  Tumor weight: 0.49 g
MV-4-11 cells; 30 mg/kg P.O.
  T/C (%) D21: 28%
  TGI (%) D21: 72%
  Tumor volume D0: 77.6 ± 3.4 mm^3
  Tumor volume D21: 279.2 ± 71.8 mm^3
  Complete remission: 0
MV-4-11 cells; 60 mg/kg P.O.
  T/C (%) D21: 0%
  TGI (%) D21: 100%
  Tumor volume D0: 79.3 ± 2.6 mm^3
  Tumor volume D21: 76.6 ± 46.2 mm^3
  Complete remission: 3
[3]; 15 mg/kg P.O.
  RTV at D18: 18.67 ± 12.89
  Tumor volume D0: 118 ± 21 mm^3
  Tumor volume D18: 2135 ± 1279 mm^3
  T/C: 70.8%
[3]; 30 mg/kg P.O.
  RTV at D18: 12.58 ± 4.38
  Tumor volume D0: 113 ± 19 mm^3
  Tumor volume D18: 1449 ± 608 mm^3
  T/C: 47.7* %
[3]; 60 mg/kg P.O.
  RTV at D18: 9.15 ± 5.33
  Tumor volume D0: 110 ± 11 mm^3
  Tumor volume D18: 1039 ± 669 mm^3
  T/C: 34.7* %
